Results from ChEMBL document CHEMBL1201862, “PubChem BioAssay data set” (2004).
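A five-concentration, 48-hour dose response in 96-well plates underlies each endpoint, interpolated linearly between surrounding concentrations. GI50 marks 50% less growth.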 Active and inactive are the calls of the source. Rule as the data show it: active = GI50 up to about 1.1 µM and inactive = higher.

Columns and labels:
Assay in all cases: inhibition of tumour cell growth, NCI panel, 48 h
[1] = test system: HCC 2998
[2] = test system: ACHN
[3] = test system: NCI-H522
[4] = test system: EKVX
[5] = test system: SF-539
[6] = test system: SK-MEL-2
[7] = test system: K562
[8] = test system: HOP-92
[9] = test system: A498
[10] = test system: SK-OV-3
[11] = test system: NCI-H460
[12] = test system: OVCAR-3
[13] = test system: HCT-15
[14] = test system: OVCAR-4
[15] = test system: NCI-H226
[16] = test system: CAKI-1

Structure (SMILES): COc1ccc(/C=[N+](\[O-])[C@H](COCc2ccccc2)c2ccccc2)cc1
- GI50 [1]: > 100 µM (inactive)
- GI50 [2]: 51.8 µM (inactive)
- GI50 [3]: 41.1 µM (inactive)
- GI50 [4]: 30.1 µM (inactive)
- GI50 [5]: > 100 µM (inactive)
- GI50 [6]: 30.3 µM (inactive)
- GI50 [7]: 45.3 µM (inactive)
- GI50 [8]: 23.9 µM (inactive)
- GI50 [9]: > 100 µM (inactive)
- GI50 [10]: > 100 µM (inactive)
- GI50 [11]: 63.7 µM (inactive)
- GI50 [12]: 44.4 µM (inactive)

Structure (SMILES): CCCC(=O)OC[n+]1ccc2c(C)c3[nH]c4ccc(OC)cc4c3c(C)c2c1
- GI50 [1]: 0.482 µM (active)
- GI50 [13]: 0.288 µM
- GI50 [14]: 1.03 µM (active)
- GI50 [2]: 0.215 µM (active)
- GI50 [3]: 1.09 µM (active)
- GI50 [4]: 1.01 µM (active)
- GI50 [5]: 0.305 µM (active)
- GI50 [15]: 0.444 µM (active)
- GI50 [6]: 1.16 µM (inactive)
- GI50 [16]: 0.908 µM (active)
- GI50 [8]: 1.16 µM (inactive)
- GI50 [9]: 1.02 µM (active)
- GI50 [10]: 1.51 µM (inactive)
- GI50 [11]: 0.0481 µM (active)
- GI50 [12]: 0.873 µM (active)

Structure (SMILES): COc1cc(C2C(C(=O)Nc3cc(F)c(F)cc3F)=C(C)NC(C)=C2C(=O)Nc2cc(F)c(F)cc2F)ccc1O
- GI50 [1]: 13.9 µM (inactive)
- GI50 [14]: 17.3 µM (inactive)
- GI50 [2]: 18.8 µM (inactive)
- GI50 [3]: 13.3 µM (inactive)
- GI50 [4]: 14.9 µM (inactive)
- GI50 [5]: 26.8 µM (inactive)
- GI50 [15]: 23.6 µM (inactive)
- GI50 [6]: 22.5 µM (inactive)
- GI50 [16]: 12.3 µM (inactive)
- GI50 [7]: 18.4 µM (inactive)
- GI50 [8]: 0.982 µM (active)
- GI50 [9]: 19.4 µM (inactive)
- GI50 [11]: 27.3 µM (inactive)
- GI50 [12]: 14.3 µM (inactive)

Structure (SMILES): CCCCN1C(=O)C2c3[nH]c4ccccc4c3C3CCCCC3C2C1=O.CCCCN1C(=O)C2c3[nH]c4ccccc4c3[C@@H]3CCCCC3C2C1=O (centres undefined)
- GI50 [1]: 8.85 µM (inactive)
- GI50 [13]: 29.4 µM
- GI50 [14]: 2.38 µM (inactive)
- GI50 [2]: 7.36 µM (inactive)
- GI50 [4]: 21.4 µM (inactive)
- GI50 [5]: 14.8 µM (inactive)
- GI50 [16]: 6.18 µM (inactive)
- GI50 [7]: 14.7 µM (inactive)
- GI50 [10]: 22.3 µM (inactive)
- GI50 [11]: 10.5 µM (inactive)
- GI50 [12]: 12.4 µM (inactive)

Structure (SMILES): O=C(O)c1ccc([N+](=O)[O-])c2c(=O)c3ccccc3[nH]c12
- GI50 [1]: > 100 µM (inactive)
- GI50 [13]: > 100 µM
- GI50 [14]: > 100 µM (inactive)
- GI50 [2]: > 100 µM (inactive)
- GI50 [3]: > 100 µM (inactive)
- GI50 [5]: > 100 µM (inactive)
- GI50 [6]: > 100 µM (inactive)
- GI50 [16]: > 100 µM (inactive)
- GI50 [7]: > 100 µM (inactive)
- GI50 [8]: > 100 µM (inactive)
- GI50 [9]: > 100 µM (inactive)
- GI50 [10]: > 100 µM (inactive)
- GI50 [11]: > 100 µM (inactive)

Structure (SMILES): O=C(Nc1nc2ccc([N+](=O)[O-])cc2s1)C(=O)C(C1OC(=O)c2ccccc21)[N+](=O)[O-] (centres undefined)
- GI50 [1]: > 100 µM (inactive)
- GI50 [13]: 66.7 µM
- GI50 [14]: > 100 µM (inactive)
- GI50 [2]: 39.3 µM (inactive)
- GI50 [4]: 31.5 µM (inactive)
- GI50 [5]: 49.9 µM (inactive)
- GI50 [15]: 55.8 µM (inactive)
- GI50 [6]: 41.5 µM (inactive)
- GI50 [16]: 70.1 µM (inactive)
- GI50 [7]: 83.4 µM (inactive)
- GI50 [8]: 20.4 µM (inactive)
- GI50 [9]: 12.6 µM (inactive)
- GI50 [10]: 54.3 µM (inactive)
- GI50 [11]: > 100 µM (inactive)
- GI50 [12]: 71 µM (inactive)

Structure (SMILES): O=c1cccccc1NCCCNc1cccccc1=O
- GI50 [13]: > 100 µM
- GI50 [2]: > 100 µM (inactive)
- GI50 [3]: > 100 µM (inactive)
- GI50 [4]: > 100 µM (inactive)
- GI50 [5]: > 100 µM (inactive)
- GI50 [15]: > 100 µM (inactive)
- GI50 [6]: > 100 µM (inactive)
- GI50 [16]: > 100 µM (inactive)
- GI50 [7]: > 100 µM (inactive)
- GI50 [8]: > 100 µM (inactive)
- GI50 [10]: > 100 µM (inactive)
- GI50 [11]: 41.6 µM (inactive)
- GI50 [12]: > 100 µM (inactive)

Structure (SMILES): CC(=O)OC(=O)O/C=C\CCl
- GI50 [1]: > 100 µM (inactive)
- GI50 [13]: > 100 µM
- GI50 [14]: > 100 µM (inactive)
- GI50 [2]: > 100 µM (inactive)
- GI50 [3]: 13.7 µM (inactive)
- GI50 [5]: > 100 µM (inactive)
- GI50 [15]: > 100 µM (inactive)
- GI50 [6]: > 100 µM (inactive)
- GI50 [16]: > 100 µM (inactive)
- GI50 [7]: > 100 µM (inactive)
- GI50 [9]: > 100 µM (inactive)
- GI50 [10]: > 100 µM (inactive)
- GI50 [11]: > 100 µM (inactive)
- GI50 [12]: > 100 µM (inactive)

Structure (SMILES): C/C(CC(=O)Nc1ccc(Cl)c(Cl)c1)=N/NC(=O)C[n+]1ccccc1
- GI50 [1]: > 100 µM (inactive)
- GI50 [13]: 30.5 µM
- GI50 [14]: > 100 µM (inactive)
- GI50 [2]: > 100 µM (inactive)
- GI50 [3]: 68.2 µM (inactive)
- GI50 [4]: > 100 µM (inactive)
- GI50 [5]: > 100 µM (inactive)
- GI50 [15]: > 100 µM (inactive)
- GI50 [6]: > 100 µM (inactive)
- GI50 [16]: > 100 µM (inactive)
- GI50 [7]: 45.8 µM (inactive)
- GI50 [8]: > 100 µM (inactive)
- GI50 [9]: > 100 µM (inactive)
- GI50 [10]: > 100 µM (inactive)
- GI50 [11]: 77.4 µM (inactive)
- GI50 [12]: > 100 µM (inactive)

Structure (SMILES): Cc1ccc(NC(=O)CCc2nnc3s/c(=C\c4cccc([N+](=O)[O-])c4)c(=O)n23)cc1
- GI50 [1]: > 100 µM (inactive)
- GI50 [13]: > 100 µM
- GI50 [14]: > 100 µM (inactive)
- GI50 [2]: 84.7 µM (inactive)
- GI50 [3]: 52.6 µM (inactive)
- GI50 [4]: > 100 µM (inactive)
- GI50 [5]: 25.3 µM (inactive)
- GI50 [15]: > 100 µM (inactive)
- GI50 [6]: > 100 µM (inactive)
- GI50 [16]: > 100 µM (inactive)
- GI50 [7]: > 100 µM (inactive)
- GI50 [8]: 85.3 µM (inactive)
- GI50 [9]: > 100 µM (inactive)
- GI50 [10]: > 100 µM (inactive)
- GI50 [11]: > 100 µM (inactive)
- GI50 [12]: > 100 µM (inactive)
